Experimental data from US10000456B2, “Polycyclic compounds as lysophosphatidic acid receptor antagonists” (AMIRA PHARMACEUTICALS, INC., priority 2009, dated 2018).

What follows are compounds tested on A2058 human melanoma cells (assay: LPA1 chemotaxis assay). Settings: LPA 100 nM, read-out: IC50, inhibition of LPA-driven chemotaxis.
Format: cell-based
Protocol: Chemotaxis of the A2058 human melanoma cells was measured using the Neuroprobe CHEMOTX® System plates ([…], 5.7 mm diameter sites). The filter sites were coated with 0.001% fibronectin (Sigma) in 20 mM Hepes, pH 7.4 and allowed to dry. A2058 cells were serum-starved for 24 hours, then harvested with Cell Stripper and resuspended in DMEM containing 0.1% fatty-acid-free bovine serum albumin (BSA) to a concentration of 1×10^6/ml. Cells were mixed with an equal volume of test compound (2×) in DMEM containing 0.1% fatty-acid-free BSA and incubated at 37° C. for 15 minutes. LPA (100 nM in DMEM containing 0.1% fatty-acid-free BSA) or vehicle was added to each well of the lower chamber and 50 μl of the cell suspension/test compound mix was applied to the upper portion of the CHEMOTX® plate. Plates were incubated at 37° C. for three hours and then the cells removed from the upper portion by rinsing with PBS and scraping. The filter was dried then stained with HEMA 3® Staining System (Fisher Scientific). The absorbance of the filter was read at 590 nm and IC50s were determined using SYMYX® Assay Explorer.

SMILES | IC50 [nM]
Cc1noc(-c2ccc(-c3ccc(C4(C(=O)NS(C)(=O)=O)CC4)cc3)cc2)c1C(O)c1nnc(Cc2ccccc2)o1 (single isomer, unassigned) [Compound 92, N-[1-(4′-{4-[(5-Benzyl-[1,3,4]oxadiazol-2-yl)-hydroxy-methyl]-3-methyl-isoxazol-5-yl}-biphenyl-4-yl)-cyclopropanecarbonyl]-methanesulfonamide] | < 100
Cc1noc(-c2ccc(-c3ccc(C4(C(=O)O)CC4)cc3)cc2)c1Nc1cccc(-c2cccc(F)c2)n1 [Compound 52, 1-(4′-{4-[6-(3-Fluoro-phenyl)-pyridin-2-ylamino]-3-methyl-isoxazol-5-yl}-biphenyl-4-yl)-cyclopropanecarboxylic acid] | < 100
Cc1noc(-c2ccc(-c3ccc(C4(C(=O)O)CC4)cc3)cc2)c1Nc1nnc(Cc2ccccc2)o1 [Compound 44, 1-{4′-[4-(5-Benzyl-[1,3,4]oxadiazol-2-ylamino)-3-methyl-isoxazol-5-yl]-biphenyl-4-yl}-cyclopropanecarboxylic acid] | < 100
Cc1noc(-c2ccc(-c3ccc(C4(C(=O)O)CC4)cc3)cc2)c1C(O)c1cccc(Cc2ccccc2)c1 (stereo not shown) [Compound 26, 1-(4′-{4-[(3-Benzyl-phenyl)-hydroxy-methyl]-3-methyl-isoxazol-5-yl}-biphenyl-4-yl)-cyclopropanecarboxylic acid] | < 100
Cc1noc(-c2ccc(-c3ccc(C4(C(=O)O)CC4)cc3)cc2)c1[C@@H](O)c1cn([C@H](C)c2ccccc2)nn1 [Compound 32, 1-[4′-(4-{(R)-Hydroxy-[1-((R)-1-phenyl-ethyl)-1H-[1,2,3]triazol-4-yl]-methyl}-3-methyl-isoxazol-5-yl)-biphenyl-4-yl]-cyclopropanecarboxylic acid] | < 100
Cc1noc(-c2ccc(-c3ccc(C4(C(=O)O)CC4)cc3)cc2)c1Nc1cccc(-c2ccccc2)n1 [Compound 33, 1-{4′-[3-Methyl-4-(6-phenyl-pyridin-2-ylamino)-isoxazol-5-yl]-biphenyl-4-yl}-cyclopropanecarboxylic acid] | < 100
Cc1noc(-c2ccc(-c3ccc(C4(C(=O)O)CC4)cc3)cc2)c1Nc1cccc(Cc2ccccc2)c1 [Compound 49, 1-{4′-[4-(3-Benzyl-phenylamino)-3-methyl-isoxazol-5-yl]-biphenyl-4-yl}-cyclopropanecarboxylic acid] | < 100
Cc1noc(-c2ccc(-c3ccc(C4(C(=O)O)CC4)cc3)cc2)c1Nc1cncc(-c2cccc(C(F)(F)F)c2)c1 [Compound 68, 1-(4′-{3-Methyl-4-[5-(3-trifluoromethyl-phenyl)-pyridin-3-ylamino]-isoxazol-5-yl}-biphenyl-4-yl)-cyclopropanecarboxylic acid] | < 100
Cc1noc(-c2ccc(-c3ccc(C4(C(=O)O)CC4)cc3)cc2)c1Nc1cccc(Cc2ccc(F)cc2)n1 [Compound 47, 1-(4′-{4-[6-(4-Fluoro-benzyl)-pyridin-2-ylamino]-3-methyl-isoxazol-5-yl}-biphenyl-4-yl)-cyclopropanecarboxylic acid] | < 100
Cc1noc(-c2ccc(-c3ccc(C4(C(=O)O)CC4)cc3)cc2)c1Nc1cccc(Cc2cccc(F)c2)n1 [Compound 46, 1-(4′-{4-[6-(3-Fluoro-benzyl)-pyridin-2-ylamino]-3-methyl-isoxazol-5-yl}-biphenyl-4-yl)-cyclopropanecarboxylic acid] | < 100
Cc1noc(-c2ccc(-c3ccc(C4(C(=O)O)CC4)cc3)cc2)c1C(O)c1nnc(Cc2ccccc2)o1 (stereo not shown) [Compound 13, 1-(4′-{4-[(5-Benzyl-[1,3,4]oxadiazol-2-yl)-hydroxy-methyl]-3-methyl-isoxazol-5-yl}-biphenyl-4-yl)-cyclopropanecarboxylic acid] | < 100

Next, values leading:

IC50 [nM] | SMILES
< 100 | Cc1noc(-c2ccc(-c3ccc(C4(C(=O)O)CC4)cc3)cc2)c1Nc1cccc(-c2ccccc2)c1 [Compound 39, 1-{4′-[4-(Biphenyl-3-ylamino)-3-methyl-isoxazol-5-yl]-biphenyl-4-yl}-cyclopropanecarboxylic acid]
< 100 | Cc1noc(-c2ccc(-c3ccc(C4(C(=O)O)CC4)cc3)cc2)c1Nc1cccc(-c2cccc(C(F)(F)F)c2)n1 [Compound 41, 1-(4′-{3-Methyl-4-[6-(3-trifluoromethyl-phenyl)-pyridin-2-ylamino]-isoxazol-5-yl}-biphenyl-4-yl)-cyclopropanecarboxylic acid]
< 100 | Cc1noc(-c2ccc(-c3ccc(C4(C(=O)O)CC4)cc3)cc2)c1Nc1nccc(-c2ccccc2)n1 [Compound 66, 1-{4′-[3-Methyl-4-(4-phenyl-pyrimidin-2-ylamino)-isoxazol-5-yl]-biphenyl-4-yl}-cyclopropanecarboxylic acid]
< 100 | Cc1noc(-c2ccc(-c3ccc(C4(C(=O)O)CC4)cc3)cc2)c1Nc1cncc(-c2ccccc2)c1 [Compound 58, 1-{4′-[3-Methyl-4-(5-phenyl-pyridin-3-ylamino)-isoxazol-5-yl]-biphenyl-4-yl}-cyclopropanecarboxylic acid]
< 100 | Cc1noc(-c2ccc(-c3ccc(C4(C(=O)O)CC4)cc3)cc2)c1C(O)c1cn(C(C)c2ccccc2)nn1 (stereo not shown) [Compound 23, 1-[4′-(4-{Hydroxy-[1-(1-phenyl-ethyl)-1H-[1,2,3]triazol-4-yl]-methyl}-3-methyl-isoxazol-5-yl)-biphenyl-4-yl]-cyclopropanecarboxylic acid]
< 100 | Cc1noc(-c2ccc(-c3ccc(C4(C(=O)O)CC4)cc3)cc2)c1Nc1cccc(-c2cccc(F)c2Cl)n1 [Compound 81, 1-(4′-{4-[6-(2-Chloro-3-fluoro-phenyl)-pyridin-2-ylamino]-3-methyl-isoxazol-5-yl}-biphenyl-4-yl)-cyclopropanecarboxylic acid]
< 100 | Cc1noc(-c2ccc(-c3ccc(C4(C(=O)O)CC4)cc3)cc2)c1C(O)c1cncc(Cc2ccccc2)c1 (stereo not shown) [Compound 27, 1-(4′-{4-[(5-Benzyl-pyridin-3-yl)-hydroxy-methyl]-3-methyl-isoxazol-5-yl}-biphenyl-4-yl)-cyclopropanecarboxylic acid]
< 100 | Cc1noc(-c2ccc(-c3ccc(C4(C(=O)O)CC4)cc3)cc2)c1Nc1cccc(-c2ccccc2Cl)n1 [Compound 60, 1-(4′-{4-[6-(2-Chloro-phenyl)-pyridin-2-ylamino]-3-methyl-isoxazol-5-yl}-biphenyl-4-yl)-cyclopropanecarboxylic acid]
< 100 | Cc1noc(-c2ccc(-c3ccc(C4(C(=O)NS(C)(=O)=O)CC4)cc3)cc2)c1Nc1cccc(Cc2ccccc2)n1 [Compound 95, N-(1-{4′-[4-(6-Benzyl-pyridin-2-ylamino)-3-methyl-isoxazol-5-yl]-biphenyl-4-yl}-cyclopropanecarbonyl)-methanesulfonamide]
< 100 | Cc1noc(-c2ccc(-c3ccc(C4(C(=O)O)CC4)cc3)cc2)c1Nc1cncc(-c2cccc(F)c2)c1 [Compound 59, 1-(4′-{4-[5-(3-Fluoro-phenyl)-pyridin-3-ylamino]-3-methyl-isoxazol-5-yl}-biphenyl-4-yl)-cyclopropanecarboxylic acid]
< 100 | Cc1noc(-c2ccc(-c3ccc(C4(C(=O)O)CC4)cc3)cc2)c1Nc1cc(-c2ccccc2)ccn1 [Compound 67, 1-{4′-[3-Methyl-4-(4-phenyl-pyridin-2-ylamino)-isoxazol-5-yl]-biphenyl-4-yl}-cyclopropanecarboxylic acid]
